“And” between values parts separate entries of the source, which are not always exact repeats. Identical values can stand only once. Like-named read-outs stand apart in the source and are kept apart here.

Consider one compound from article PMC8453745, “Human Mass Balance and Metabolite Profiling of [^14C]‐Pamiparib, a Poly (ADP‐Ribose) Polymerase Inhibitor, in Patients With Advanced Cancer” (Clinical Pharmacology in Drug Development, 2021).

One data set relates to rat bone marrow. The arrangement: method as in data on file. Conditions: in vivo rat bone marrow micronucleus assay; ref data on file; cited from earlier work.
The subject of another data set is PARP1. The arrangement: method as in PMID 33264017. Conditions: read-out: PARP1 inhibition IC50; cited from earlier work.
On the set-up of data set [1]: method as in data on file. Conditions: suspension in water, room temperature; ref data on file; cited from earlier work.
The test system of data set [2] is Chinese hamster ovary cells. The arrangement: method as in data on file. Conditions: in vitro chromosomal aberration assay, CHO cells; ref data on file; cited from earlier work.
Data set [3] is described as follows: plasma pamiparib pharmacokinetics in patients (LC‐MS/MS). It counts as in vivo, human. Conditions: for Cmax / half-life: plasma, po. From the text:
Part 1 of the study included a screening phase of up to 28 days prior to drug administration to assess eligibility. Patients were admitted to the clinical research unit (CRU) at Royal Liverpool University Hospital (Liverpool, UK)/Clatterbridge Cancer Centre NHS Foundation Trust (Bebington, Wirral, UK) on day −1 and received a single dose of 60‐mg/100 μCi [^14C]‐pamiparib orally the morning of day 1. Patients remained in the CRU until completion of assessments on day 7, when discharge criteria of ≈90% of the radioactive dose being recovered or <1% of the radioactive dose being recovered in urine and feces for 2 consecutive 24‐hour collection intervals were met. If discharge criteria were not met by day 7, patients collected 24‐hour excreta samples up to day 14 on an outpatient basis. Part 2 of the study, evaluating the safety/tolerability and antitumor activity of 60 mg twice‐daily pamiparib in patients with advanced and/or metastatic solid tumors, is ongoing and is not included in this report.
Patients fasted overnight and 2 hours after oral administration of a single 60‐mg dose containing ≈100 μCi (3.7‐3.9 MBq) of [^14C]‐pamiparib with ≈240 mL of room‐temperature water or juice (orange or grape). The residual radioactivity present in each vial postdose was corrected from the dose. The radioactive dose of 100 μCi of [^14C]‐pamiparib provided minimum risk to patients according to the dosimetry calculation from a quantitative whole‐body autoradiography study in male and female Long Evans rats; the dose also provided sufficient signal for total radioactivity counting and quantitative radioprofiling in blood, plasma, and excreta (data on file). Patients were not permitted to lie in the supine position for 2 hours after drug administration, except if required because of an adverse event (AE) and/or study procedure.
Total radioactivity was analyzed at Covance Laboratories (Harrogate, North Yorkshire, UK), and metabolite profiling was conducted at Covance Laboratories (Madison, Wisconsin). Determination of pamiparib concentrations in plasma and total radioactivity in plasma and whole blood was performed predose and 0.25, 0.5, 1, 1.5, 2, 2.5, 3, 6, 12, 24, 48, 72, 96, 120, and 144 hours postdose. Pamiparib concentrations in plasma and urine were determined at Covance Laboratories (Salt Lake City, Utah) with validated liquid chromatography‐tandem mass spectrometry (LC‐MS/MS) methods.
An aliquot of human plasma (25 μL) containing dipotassium ethylenediaminetetraacetic acid as anticoagulant or urine (25 μL) was added with the internal standard (20.0 μL of 400 ng/mL BGB‐326) in water:ACN (50:50 v/v) followed by the addition of water:ACN (50:50 v/v, 20.0 μL). The plasma samples were centrifugated and vortexed followed by the addition of 200 μL of 5% NH4OH and 100 μL of water. After centrifugation, the supernatant (50 μL) was loaded to Biotage Isolute supported liquid extraction plate (Biotage, Holliston, Massachusetts) and eluted with methyl tert‐butyl ether (700 μL). The eluted samples were dried down at 45°C in TurboVap for 30 minutes and reconstituted in 400 μL of water:MeOH (80:20 v/v), followed by LC‐MS/MS analysis. The urine samples were centrifuged and vortexed followed by the addition of 200 μL of ACN. After centrifugation, 100 μL of the samples was transferred to a plate followed by the addition of 300 μL of water. The samples were centrifugated again before LC‐MS/MS analysis. The LC‐MS/MS instrumentation was the same for plasma and urine analysis including a LEAP autosampler (LEAP Technologies, Chapel Hill, North Carolina), a Shimadzu SCL‐10A controller with LC‐10AD pump (Shimadzu, Columbia, Maryland), and a Sciex API 5000 mass spectrometer (Sciex, Framingham, Massachusetts) equipped with a XBridge Phenyl column (2.1 × 50 mm, 5 μm; Waters, Pleasanton, California). The mobile phase A is 10 mM ammonium formate in water, and mobile phase B is MeOH:ACN (50:50 v/v). […]

Data set [4] is described as follows: safety and tolerability in patients. It counts as in vivo, human. The protocol:
Safety and tolerability were evaluated throughout the study, and AEs were assessed from the time of obtaining informed consent to discharge from the study and follow‐up visit or early withdrawal. Scheduled safety assessments of 12‐lead electrocardiogram, physical examination, vital signs, and clinical laboratory investigations (clinical chemistry, hematology, serology, and urinalysis) occurred before administration of the study drug and at discharge and follow‐up visit.

Where [5] appears, read: single oral 60 mg/100 μCi, n = 4.

Turning to `C[C@]12CCCN1CC1=NNC(=O)c3cc(F)cc4[nH]c2c1c34` [Pamiparib], the clastogenic activity result (in the data set with rat bone marrow; in data set [2]) was “clastogenic activity” throughout. Moreover, the IC50 – broadly, the concentration needed to halve the response being measured – with PARP1 was 1.3 nM. Besides, the “chemical stability and radiopurity of the suspension established for” value in data set [1] was 48 h. Also, the “geometric coefficient of variation of parent AUCs among 4 subjects” value in data set [3] is reported as less than 22%. Moreover, in data set [3] (human, oral, 60 mg, as printed in discussion, read-out: AUC0‐t, geometric mean (LC‐MS/MS)), the AUC amounted to 29200 ng·h/mL. The Cmax (in general, the maximum level reached in the sampled fluid or tissue) in data set [3] (human, 60 mg, single oral 60 mg/100 μCi, n = 4, read-out: Cmax, arithmetic mean (SD)) turned out to be 2210 ng/mL; in data set [3] (human, 60 mg, single oral 60 mg/100 μCi, n = 4, read-out: Cmax, geometric mean (CV%)), 2190 ng/mL. Also, the half-life is 29.2 h in data set [3] (human, 60 mg, single oral 60 mg/100 μCi, n = 4, read-out: t1/2, arithmetic mean (SD) (converted)) and 28.7 h in data set [3] (human, 60 mg, single oral 60 mg/100 μCi, n = 4, read-out: t1/2, geometric mean (CV%) (converted)). In addition, in data set [3] (human, single oral 60 mg/100 μCi, n = 4, read-out: tmax, median (min, max)), the Tmax (usually the time at which the peak concentration occurs) is 2 h. In addition, the “CL/F, arithmetic mean (SD)” value in data set [3] (setting [5]) is reported as 2.25 (0.55) L/h. The “CL/F, geometric mean (CV%)” value is 2.21 (23.2) L/h in data set [3] (setting [5]); “≈ 2.2 L/h and 2.21 L/h” in data set [3] (single oral 60 mg/100 μCi, n = 4, listed as pamiparib). The “patients with TEAEs” value in data set [4] (4 patients) is given as 100%. In data set [4] (4 patients), the “severity of all TEAEs” value was “mild (CTCAE grade 1)”. In addition, in data set [4] (in 2 patients), the “TEAEs considered related to [^14C]‐pamiparib, percent of events” value turned out to be 31.3%. Further, the “TEAEs considered unrelated to [^14C]‐pamiparib, percent of events” value in data set [4] (in 4 patients) came to 68.8%. Also, the “TEAEs reported (events)” value in data set [4] (in 4 patients) was found to be 16. For the same compound, the tolerability entry in data set [4] (single dose 60 mg [^14C]‐pamiparib, 4 patients) was “well tolerated”. Further, the “deaths or serious AEs” value in data set [4] (single dose 60 mg, 4 patients) is “no deaths or serious AEs”.
